Data published in ChEMBL document CHEMBL1201862, “PubChem BioAssay data set” (2004).
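Values below derive from 48-hour exposures of cells grown in 96-well plates, with endpoints linearly interpolated between the two concentrations bracketing the appropriate inhibition level. GI50: concentration for 50% inhibition of growth.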 Active and inactive are the calls of the source. No stated cut-off is given here; in the data, active = GI50 up to about 1.1 µM and inactive = higher.

Assays:
Test in all cases: inhibition of tumour cell growth, NCI panel, 48 h
SNB-75 = tested on: SNB-75
COLO 205 = tested on: COLO 205
KM12 = tested on: KM12
UACC-62 = tested on: UACC-62
HOP-62 = tested on: HOP-62
SF-268 = tested on: SF-268
NCI-H226 = tested on: NCI-H226
MDA-MB-231 = tested on: MDA-MB-231
K562 = tested on: K562
LOX IMVI = tested on: LOX IMVI
RPMI-8226 = tested on: RPMI-8226
HL-60 = tested on: HL-60
SK-OV-3 = tested on: SK-OV-3
M14 = tested on: M14
SK-MEL-5 = tested on: SK-MEL-5
UACC-257 = tested on: UACC-257
NCI-H460 = tested on: NCI-H460
MDA-N = tested on: MDA-N
HOP-92 = tested on: HOP-92
MOLT-4 = tested on: MOLT-4

| Structure (SMILES) | GI50 (SNB-75) | GI50 (COLO 205) | GI50 (KM12) | GI50 (UACC-62) | GI50 (HOP-62) | GI50 (SF-268) | GI50 (NCI-H226) | GI50 (MDA-MB-231) | GI50 (K562) | GI50 (LOX IMVI) | GI50 (RPMI-8226) | GI50 (HL-60) | GI50 (SK-OV-3) | GI50 (M14) | GI50 (SK-MEL-5) | GI50 (UACC-257) | GI50 (NCI-H460) | GI50 (MDA-N) | GI50 (HOP-92) | GI50 (MOLT-4) |
| --- | --- | --- | --- | --- | --- | --- | --- | --- | --- | --- | --- | --- | --- | --- | --- | --- | --- | --- | --- | --- |
| O=[N+]([O-])/C(C(Cl)=C(Cl)Cl)=C(/Cl)Sc1ccccc1 | 15000 nM (inactive) | 1230 nM (inactive) | 17900 nM (inactive) | 1800 nM (inactive) | 3540 nM (inactive) | 2290 nM (inactive) | 7760 nM (inactive) | 1860 nM (inactive) | 590 nM (active) | 1870 nM (inactive) | 306 nM (active) | 139 nM (active) | 20100 nM (inactive) | 1820 nM (inactive) | 2120 nM (inactive) | 1250 nM (inactive) | 17100 nM (inactive) | 1590 nM (inactive) | 2050 nM (inactive) | 361 nM (active) |
| CCc1ccccc1NNc1cc(=O)[nH]c(=O)[nH]1 | 17700 nM (inactive) | 18000 nM (inactive) | 17300 nM (inactive) | 19600 nM (inactive) | 19300 nM (inactive) | > 10000 nM (inactive) | 18500 nM (inactive) | 17500 nM (inactive) | 27000 nM (inactive) | 14000 nM (inactive) | 8200 nM (inactive) | 26700 nM (inactive) | 22600 nM (inactive) | 18500 nM (inactive) | 17300 nM (inactive) | 18500 nM (inactive) | 22900 nM (inactive) | 17900 nM (inactive) | 16600 nM (inactive) | 26700 nM (inactive) |
| C/C(=C\c1csc(C)n1)[C@@H]1C[C@@H]2O[C@@H]2CCC[C@H](C)[C@H](O)[C@@H](C)C(=O)C(C)(C)[C@@H](O)CC(=O)O1 [EPOTHILONE A] | < 0.1 nM (active) | < 0.1 nM (active) | < 0.1 nM (active) | < 0.1 nM (active) | < 0.1 nM (active) | < 0.1 nM (active) | < 0.1 nM (active) | < 0.1 nM (active) | < 0.1 nM (active) | < 0.1 nM (active) | < 0.1 nM (active) | < 0.1 nM (active) | < 0.1 nM (active) | < 0.1 nM (active) | < 0.1 nM (active) | < 0.1 nM (active) | < 0.1 nM (active) | < 0.1 nM (active) | 3.9 nM (active) | < 0.1 nM (active) |
| C/C1=C\[C@H](C)C[C@H](C)OC(=O)C[C@H](c2ccc(O)cc2)NC(=O)[C@@H](Cc2c(Br)[nH]c3ccccc23)N(C)C(=O)[C@H](C)NC(=O)[C@@H](C)C1 [JASPAMIDE] | 84 nM (active) | 207 nM (active) | 264 nM (active) | 219 nM (active) | 329 nM (active) | 139 nM (active) | 245 nM (active) | 28.7 nM (active) | 667 nM (active) | 122 nM (active) | 218 nM (active) | 132 nM (active) | 185 nM (active) | 211 nM (active) | 158 nM (active) | 110 nM (active) | 233 nM (active) | 83.4 nM (active) | 237 nM (active) | 682 nM (active) |
